Results taken from patent US20220168328A1, “METHODS AND COMPOSITIONS FOR TREATING EUKARYOTIC INFECTIONS VIA ALTERING AGGREGATION DYNAMICS OF RAPTOR/KOG1” (ARIZONA BOARD OF REGENTS ON BEHALF OF THE UNIVERSITY OF …, priority 2014, published 2022).

Key:
[1] = system: ringworm; experiment: Patient with ringworm treated with topical AICAR (Example 2); type: in vivo, human; conditions: child, 3 g AICAR
From the text: A child (height of 165 cm, weight of 55 kg) presents to their primary care physician with a red and itchy rash on their forearm. The rash is in a circular pattern. The physician diagnoses the patient with ringworm. The physician administers a dose of a topical pharmaceutical containing 3 g of AICAR, an agent that activates TORC1 aggregate formation.

[2] = system: TORC1; experiment: DNA microarray measurement of TORC1 pathway output (gene expression) with and without rapamycin; type: cell-based, S. cerevisiae; conditions: salt stress, 0.4M KCl; hog1Δ versus wild-type strain
Experimental: Previous studies of TOR pathway signaling in stress have been limited to measuring phosphorylation of a single substrate, Sch9. As a result it was not clear whether stress signals inhibit TORC1 activity directly or simply act on one or two TORC1 targets proteins. To help distinguish between these possibilities, the complete output of TORC1 pathway in osmotic stress was measured using DNA microarrays. To do this, the cellular response was monitored with and without the potent TORC1 inhibitor rapamycin in 0.4M KCl and three control conditions: amino acid starvation, nitrogen starvation and log growth conditions.
In osmotic stress, Hog1/p38, the terminal kinase in the HOG pathway, is known to regulate many aspects of the stress response including transcription, chromatin remodeling, cell cycle check-points, and ion and glycerol channel regulation. […]
(a) DNA microarray data comparing the gene expression program activated by KCl stress and the TORC1 inhibitor rapamycin. […] A phosphorylation-induced shift in the electrophoretic mobility of Sch9-3HA was measured by performing a western blot to a SDS-PAGE gel loaded with extract from cells collected before and after treatment with 0.4M KCl, using an anti-HA antibody. […] The experiment described in (b) was carried out in triplicate in wild-type and hog1A strains and the fraction of protein in the phosphorylated state was quantified using densitometry. […]

[3] = system: esophageal candidiasis; experiment: Patient with esophageal candidiasis treated with oral phenformin (Example 1); type: in vivo, human; conditions: person, 200 mg phenformin
Experimental: The physician notes the presence of white plaques on the patient's tongue. The physician diagnoses esophageal candidiasis. The physician administers an oral pharmaceutical containing 200 mg of phenformin, an agent that activates TORC1 aggregate formation.

[4] = system: Kog1; experiment: Kog1 foci (Kog1 bodies) resolution in WT cells after glucose starvation; type: cell-based, budding yeast; conditions: cycloheximide (CHX) alone, without glucose repletion

Compound: NC(=O)c1ncn([C@@H]2O[C@H](CO)[C@@H](O)[C@H]2O)c1N [AICAR]
- outcome by four days of treatment [1]: the rash is gone

Compound: CO[C@H]1C[C@@H]2CC[C@@H](C)[C@@](O)(O2)C(=O)C(=O)N2CCCC[C@H]2C(=O)O[C@H]([C@H](C)C[C@@H]2CC[C@@H](O)[C@H](OC)C2)CC(=O)[C@H](C)/C=C(\C)[C@@H](O)[C@@H](OC)C(=O)[C@H](C)C[C@H](C)/C=C/C=C/C=C/1C [rapamycin]
- more repression by rapamycin in hog1Δ than wt [2]: 4 fold

Compound: [H]/N=C(/N)N/C(=N/[H])NCCc1ccccc1 [phenformin]
- signs of improvement after one day of treatment ([3]; one day): absence of white plaques on the tongue and no difficulty swallowing
- outcome by two days of treatment ([3]; two days): sore throat is gone

Compound: C[C@@H]1C[C@@H]([C@H](O)CC2CC(=O)NC(=O)C2)C(=O)[C@@H](C)C1 [cycloheximide]
- disaggregation of Kog1 [4]: does not trigger disaggregation of Kog1
